The source of these data is the NIST ThermoML archive (doi:10.1021/je400282h).

For the series the following is noted: Liquid, Ebulliometric method (Recirculating still).

One may read the vapor or sublimation pressure as the equilibrium pressure above the liquid or solid.

± gives the expanded uncertainty stated by the source.

As to `CC(=O)O` [acetic acid], the “vapor or sublimation pressure” value (391.03 K) was determined as 101.32 ± 0.46 kPa.

Consider `O` [water], for which the “vapor or sublimation pressure” value (373.15 K) was determined as 101.32 ± 0.46 kPa.
